Measured values: PubChem BioAssay AID328 (DTP/NCI, 2004)
Values joined by “and” are separate entries in the source; they are usually repeats but may differ in a detail not shown here. Equal values may be shown once. Inconclusive results and toxic doses are left out.

Tested on: BDF1 mice, P388 leukemia ip, median survival T/C
Test: NCI In Vivo Anticancer Drug Screen. Data for tumor model P388 Leukemia (intraperitoneal) in B6D2F1 (BDF1) mice
Details: endpoint: median survival time, higher = longer survival
Summary of the method: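 Steps: implant the tumour, treat one group with compound and another with vehicle, record survival, then divide treated by control.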

[1] = dose: 25.0 mg/kg/injection, schedule: Q04DX003 (ip), vehicle: saline
[2] = dose: 100.0 mg/kg/injection, schedule: Q04DX003 (ip), vehicle: saline with Tween-80
[3] = dose: 200.0 mg/kg/injection, schedule: Q04DX003 (ip), vehicle: saline with Tween-80
[4] = dose: 400.0 mg/kg/injection, schedule: Q04DX003 (ip), vehicle: saline with Tween-80
[5] = dose: 100.0 mg/kg/injection, schedule: Q04DX003 (ip), vehicle: saline
[6] = dose: 100.0 mg/kg/injection, schedule: Q01DX009 (ip), vehicle: saline with Tween-80
[7] = dose: 200.0 mg/kg/injection, schedule: Q01DX009 (ip), vehicle: saline with Tween-80
[8] = dose: 25.0 mg/kg/injection, schedule: Q01DX009 (ip), vehicle: Klucel (hydroxypropylcellulose) (HPC)

## CC(=O)Nc1ccc2c(Nc3ccc(NS(C)(=O)=O)cc3)c3ccccc3nc2c1
dose: 0.73 mg/kg/injection, schedule: Q01DX009 (ip), vehicle: saline
  T/C: 254 % of control
dose: 0.88 mg/kg/injection, schedule: Q04DX003 (ip), vehicle: saline
  T/C: 163 % of control
dose: 1.1 mg/kg/injection, schedule: Q01DX009 (ip), vehicle: saline
  T/C: 260 % of control
dose: 1.32 mg/kg/injection, schedule: Q04DX003 (ip), vehicle: saline
  T/C: 195 % of control
dose: 1.65 mg/kg/injection, schedule: Q01DX009 (ip), vehicle: saline
  T/C: 260 % of control
dose: 2.0 mg/kg/injection, schedule: Q04DX003 (ip), vehicle: saline
  T/C: 200 % of control
dose: 2.5 mg/kg/injection, schedule: Q01DX009 (ip), vehicle: saline
  T/C: 252 % of control and 262 % of control
dose: 3.0 mg/kg/injection, schedule: Q04DX003 (ip), vehicle: saline
  T/C: 195 % of control
dose: 5.0 mg/kg/injection, schedule: Q01DX009 (ip), vehicle: saline
  T/C: 92 % of control
dose: 5.56 mg/kg/injection, schedule: Q04DX003 (ip), vehicle: saline
  T/C: 250 % of control
dose: 5.6 mg/kg/injection, schedule: Q04DX003 (ip), vehicle: saline
  T/C: 236 % of control
dose: 8.3 mg/kg/injection, schedule: Q04DX003 (ip), vehicle: saline
  T/C: 281 % of control
dose: 8.33 mg/kg/injection, schedule: Q04DX003 (ip), vehicle: saline
  T/C: 250 % of control
dose: 12.5 mg/kg/injection, schedule: Q04DX003 (ip), vehicle: saline
  T/C: 250 % of control and 272 % of control and 281 % of control
dose: 18.7 mg/kg/injection, schedule: Q04DX003 (ip), vehicle: saline
  T/C: 250 % of control and 277 % of control
[1]
  T/C: 122 % of control
dose: 18.0 micrograms/kg/injection, schedule: Q04DX003 (ip), vehicle: saline
  T/C: 104 % of control
dose: 27.0 micrograms/kg/injection, schedule: Q04DX003 (ip), vehicle: saline
  T/C: 109 % of control
dose: 40.0 micrograms/kg/injection, schedule: Q04DX003 (ip), vehicle: saline
  T/C: 113 % of control

## N/C(=N\OS(=O)(=O)c1ccccc1)Oc1ccccc1
[2]
  T/C: 97 % of control
[3]
  T/C: 95 % of control
[4]
  T/C: 99 % of control

## COC(=O)c1cc([N+](=O)[O-])ccc1Cl
[5]
  T/C: 98 % of control
dose: 200.0 mg/kg/injection, schedule: Q04DX003 (ip), vehicle: saline
  T/C: 102 % of control
dose: 400.0 mg/kg/injection, schedule: Q04DX003 (ip), vehicle: saline
  T/C: 100 % of control

## O=[N+]([O-])C=C(S)S
dose: 12.5 mg/kg/injection, schedule: Q01DX009 (ip), vehicle: water
  T/C: 101 % of control
dose: 25.0 mg/kg/injection, schedule: Q01DX009 (ip), vehicle: water
  T/C: 124 % of control
dose: 50.0 mg/kg/injection, schedule: Q01DX009 (ip), vehicle: water
  T/C: 117 % of control
dose: 100.0 mg/kg/injection, schedule: Q01DX009 (ip), vehicle: water
  T/C: 108 % of control

## [O]=[Cr](=[O])([OH])[O][Cr](=[O])(=[O])[OH]
dose: 6.25 mg/kg/injection, schedule: Q01DX009 (ip), vehicle: saline
  T/C: 113 % of control
dose: 12.5 mg/kg/injection, schedule: Q01DX009 (ip), vehicle: saline
  T/C: 100 % of control

## Cc1ccc2c(c1O)NC(=O)C1CCCN1C2=O (stereo not given)
dose: 100.0 mg/kg/injection, schedule: Q04DX002 (ip), vehicle: saline with Tween-80
  T/C: 99 % of control
dose: 200.0 mg/kg/injection, schedule: Q04DX002 (ip), vehicle: saline with Tween-80
  T/C: 102 % of control
dose: 400.0 mg/kg/injection, schedule: Q04DX002 (ip), vehicle: saline with Tween-80
  T/C: 101 % of control

## CCn1c(O)c(C=N)c(=O)n(CC)c1=O
dose: 25.0 mg/kg/injection, schedule: Q01DX009 (ip), vehicle: saline
  T/C: 100 % of control
[1]
  T/C: 96 % of control
dose: 50.0 mg/kg/injection, schedule: Q01DX009 (ip), vehicle: saline
  T/C: 104 % of control
dose: 50.0 mg/kg/injection, schedule: Q04DX003 (ip), vehicle: saline
  T/C: 100 % of control
[5]
  T/C: 103 % of control

## CCCC#CC#N
dose: 25.0 mg/kg/injection, schedule: Q01DX009 (ip), vehicle: olive oil, sesame oil, peanut oil
  T/C: 104 % of control
dose: 50.0 mg/kg/injection, schedule: Q01DX009 (ip), vehicle: olive oil, sesame oil, peanut oil
  T/C: 91 % of control

## CC1CC(C)(C)N=C(CC(C)(O)c2ccccn2)O1 (stereo not given)
dose: 100.0 mg/kg/injection, schedule: Q01DX001 (ip), vehicle: saline sonified
  T/C: 100 % of control
dose: 200.0 mg/kg/injection, schedule: Q01DX001 (ip), vehicle: saline sonified
  T/C: 90 % of control
dose: 400.0 mg/kg/injection, schedule: Q01DX001 (ip), vehicle: saline sonified
  T/C: 100 % of control

## Cc1ncc(CO)c(C)c1O
dose: 12.5 mg/kg/injection, schedule: Q01DX010 (ip), vehicle: saline
  T/C: 100 % of control
dose: 25.0 mg/kg/injection, schedule: Q01DX010 (ip), vehicle: saline
  T/C: 100 % of control
dose: 50.0 mg/kg/injection, schedule: Q01DX010 (ip), vehicle: saline
  T/C: 100 % of control
dose: 100.0 mg/kg/injection, schedule: Q01DX010 (ip), vehicle: saline
  T/C: 100 % of control

## O=C(CNC(=O)Nc1n[nH]c(=S)s1)NNC(=S)Nc1ccccc1
dose: 50.0 mg/kg/injection, schedule: Q01DX009 (ip), vehicle: saline with Tween-80
  T/C: 115 % of control
[6]
  T/C: 118 % of control
[7]
  T/C: 109 % of control

## Nc1[nH]nc2nccnc12
[6]
  T/C: 108 % of control
[2]
  T/C: 100 % of control
[7]
  T/C: 100 % of control
[3]
  T/C: 104 % of control
dose: 400.0 mg/kg/injection, schedule: Q01DX009 (ip), vehicle: saline with Tween-80
  T/C: 100 % of control
[4]
  T/C: 109 % of control

## NN(C(=O)c1ccccc1)C1CCCCC1
dose: 25.0 mg/kg/injection, schedule: Q01DX009 (ip), vehicle: alcohol
  T/C: 91 % of control
dose: 50.0 mg/kg/injection, schedule: Q01DX009 (ip), vehicle: alcohol
  T/C: 100 % of control
dose: 75.0 mg/kg/injection, schedule: Q04DX003 (ip), vehicle: Klucel (hydroxypropylcellulose) (HPC)
  T/C: 110 % of control
dose: 115.0 mg/kg/injection, schedule: Q04DX003 (ip), vehicle: Klucel (hydroxypropylcellulose) (HPC)
  T/C: 120 % of control
dose: 170.0 mg/kg/injection, schedule: Q04DX003 (ip), vehicle: Klucel (hydroxypropylcellulose) (HPC)
  T/C: 100 % of control
dose: 255.0 mg/kg/injection, schedule: Q04DX003 (ip), vehicle: Klucel (hydroxypropylcellulose) (HPC)
  T/C: 110 % of control
dose: 385.0 mg/kg/injection, schedule: Q04DX003 (ip), vehicle: Klucel (hydroxypropylcellulose) (HPC)
  T/C: 100 % of control

## O=[As]c1ccc(Br)cc1 (stereo not given)
dose: 0.5 mg/kg/injection, schedule: Q01DX009 (ip), vehicle: Klucel (hydroxypropylcellulose) (HPC)
  T/C: 104 % of control
dose: 1.0 mg/kg/injection, schedule: Q01DX009 (ip), vehicle: Klucel (hydroxypropylcellulose) (HPC)
  T/C: 104 % of control
dose: 2.0 mg/kg/injection, schedule: Q01DX009 (ip), vehicle: Klucel (hydroxypropylcellulose) (HPC)
  T/C: 104 % of control

## Nc1cc(N)nc(S(=O)O)n1
[8]
  T/C: 95 % of control and 111 % of control and 120 % of control
dose: 25.0 mg/kg/injection, schedule: Q04DX003 (ip), vehicle: Klucel (hydroxypropylcellulose) (HPC)
  T/C: 104 % of control
dose: 50.0 mg/kg/injection, schedule: Q01DX009 (ip), vehicle: Klucel (hydroxypropylcellulose) (HPC)
  T/C: 95 % of control
dose: 50.0 mg/kg/injection, schedule: Q04DX003 (ip), vehicle: Klucel (hydroxypropylcellulose) (HPC)
  T/C: 95 % of control
dose: 100.0 mg/kg/injection, schedule: Q01DX009 (ip), vehicle: Klucel (hydroxypropylcellulose) (HPC)
  T/C: 90 % of control and 110 % of control
dose: 100.0 mg/kg/injection, schedule: Q04DX003 (ip), vehicle: Klucel (hydroxypropylcellulose) (HPC)
  T/C: 100 % of control

## Nc1cc2c(c(Cl)c1Br)-c1ccccc1C2=O
dose: 12.5 mg/kg/injection, schedule: Q01DX009 (ip), vehicle: Klucel (hydroxypropylcellulose) (HPC)
  T/C: 90 % of control
[8]
  T/C: 86 % of control
dose: 100.0 mg/kg/injection, schedule: Q01DX001 (ip), vehicle: other
  T/C: 86 % of control
dose: 200.0 mg/kg/injection, schedule: Q01DX001 (ip), vehicle: other
  T/C: 104 % of control
dose: 400.0 mg/kg/injection, schedule: Q01DX001 (ip), vehicle: other
  T/C: 104 % of control

## COc1cc2c3c(c4ccc(O)cc4c2cc1OC)[C@@H](O)[C@@H]1CCCN1C3
dose: 2.5 mg/kg/injection, schedule: Q01DX009 (ip), vehicle: water
  T/C: 115 % of control
dose: 5.0 mg/kg/injection, schedule: Q01DX009 (ip), vehicle: water
  T/C: 123 % of control
